Experimental data as given in PMC5735336, “Microwave-assisted synthesis and antitumor evaluation of a new series of thiazolylcoumarin derivatives” (EXCLI Journal, 2017).

How the values were obtained:
[1] = tested on: cervical (Hela) cancer cell line; experiment: In vitro antitumor screening, MTT assay, Hela; format: cell-based; settings: Homo sapiens, 50% inhibition of cell viability
Protocol: (§1) The new analogs were tested for in vitro antitumor efficacy adopting the reported procedure (Mosmann, 1983[46]; Denizot and Lang, 1986[13]; Gerlier and Thomasset, 1986[21]).
(§2) In vitro antitumor screening of compounds 5a-t was carried out on cervical (Hela) and kidney fibroblast (COS-7) cancer cell lines in accord to MTT assay (Mosmann, 1983[46]; Denizot and Lang, 1986[13]; Gerlier and Thomasset, 1986[21]) and utilizing doxorubicin as a standard drug. The concentrations of the compounds that cause 50% inhibition of cell viability (IC50, µM) were calculated. […]
In vitro antitumor screening
(§3) Compounds 5a-t were screened for in vitro antitumor activity against HepG2 (liver), HCT-116 (colon) and MCF-7 (breast) cancer cell lines adopting MTT assa y (Mosmann, 1983; Denizot and Lang, 1986; Gerlier and Thomasset, 1986) and usin g 5- fluorouracil as a reference antitumor agent. Cells were cultured in Roswell Park Memorial Institute (RPM I) 1640 medium wit h 10% fetal bovine serum, penicillin (100 units/mL) and streptomycin (100 µg/mL) at 37 ° C in an atmosphere of 5% CO 2 were added.
(§4) Cells were placed in 96-multiwell microtiter plates (10^4 cells/well), for 24 h rs at 37 °C and in an atmosphere of 5% CO2 before tr eatment with the compounds to allow attachment of the cells to the wall of the plate. The tested compounds were dissolved in DMSO and diluted with phosphate buffer saline (PBS) to obtain different concentrations. Tested compounds of dif-ferent concentrations were added to each well and cells were incubated with the compounds for 48 hrs at 37 °C and in an atmosphere of 5% CO2. All tests were performed in triplicates.
(§5) The treated cells were wash ed with PBS and 100 µL of 3 -(4,5-dimeth ylthiazol-2-yl )-2,5-diphe-n yltetrazolium bromide solution (MTT) (5 mg/m L MTT st ock in PBS diluted to 1 mg/ mL with 10% RPMI-1640 medium) was added. The 9 6 -multiwell plates were read b y microarra y read er Perkinelmer vector 3V multilabel counter model 1420 (Perkinelmer, Boston, MA) for optical densit y at 490 nm (Mosmann, 1983; Denizot and Lang, 1986; Gerlier and Thomasset, 1986).
(§6) The relative percenta ge cell viabilit y was calculate d from the following equation: […]
(§7) The relation between surviving fraction and drug concentration is plotted to get the survival curve for HepG2, HCT-116 and M CF-7 cancer cell lines . […]
(§8) Denizot F, Lang R. Rapid colorimetric assa y for cell growth and survival. Modifications to the tetrazolium dye procedure giving improved sensitivity an d reliability. J Immunol Methods. 1986;89:271-7.
(§9) Gerlier D, Thomasset T. Use of MTT colorimetric assa y to measure cell activation. J Immunol Methods. 1986; […]
(§10) Mosmann T. Rapid colorimetric assa y for cellular growth and survival: Application to proliferation and cytotox- […]
(§11) Oberling C, Gu erin M. The role of viruses in the production of cancer . Ad v Cancer Res. 1954;2:353-423.
(§12) Sheeja KR, Kuttan G, Kuttan R. C ytotox ic and antitumour activit y of Berberin. Amala Res Bull. 1997;17:73-6.

[2] = tested on: kidney fibroblast (COS-7) cancer cell line; experiment: In vitro antitumor screening, MTT assay, COS-7; format: cell-based; settings: Chlorocebus aethiops, 50% inhibition of cell viability, COS-7 cell line
Protocol: as §1, §2
In vitro antitumor screening […]
as §3, with “HCT-116” for “Compounds 5a-t were screened for in vitro antitumor activity against HepG2 (liver), HCT-116”
as §4, §5, §6, §7, §8, §9, §10, §11, §12

| IC50 [1] [µM] | melting point [°C] | SMILES | IC50 [2] [µM] |
| --- | --- | --- | --- |
| > 50 | 225 to 227 | O=c1oc2ccccc2cc1-c1csc(NN=Cc2ccc3ccccc3c2)n1 [5o, 3-(2-(2-(Naphthalen-2-ylmethylidene)hydrazino)thiazol-4-yl)-2H-chromen-2-one] | > 50 |
| > 50 | 212 to 213 | O=c1oc2ccccc2cc1-c1csc(NN=Cc2ccccc2Br)n1 [5a, 3-(2-(2-(2-Bromobenzylidene)hydrazino)thiazol-4-yl)-2H-chromen-2-one] | > 50 |
| > 50 | 189 to 190 | O=c1oc2ccccc2cc1-c1csc(NN=Cc2ccc(C(F)(F)F)cc2)n1 [5d, 3-(2-(2-(4-(Trifluoromethyl)benzylidene)hydrazino)thiazol-4-yl)-2H-chromen-2-one] | > 50 |
| > 50 | 206 to 207 | Cc1ccc(O)c(C=NNc2nc(-c3cc4ccccc4oc3=O)cs2)c1 [5j, 3-(2-(2-(2-Hydroxy-5-methylbenzylidene)hydrazino)thiazol-4-yl)-2H-chromen-2-one] | > 50 |
| > 50 | 224 to 225 | N#Cc1cccc(C=NNc2nc(-c3cc4ccccc4oc3=O)cs2)c1 [5c, 3-(2-(2-(3-Cyanobenzylidene)hydrazino)thiazol-4-yl)-2H-chromen-2-one] | > 50 |
| > 50 | 182 to 184 | O=c1oc2ccccc2cc1-c1csc(NN=Cc2ccc(O)c(Br)c2)n1 [5i, 3-(2-(2-(3-Bromo-4-hydroxybenzylidene)hydrazino)thiazol-4-yl)-2H-chromen-2-one] | > 50 |
| > 50 | 219 to 220 | N#Cc1ccccc1C=NNc1nc(-c2cc3ccccc3oc2=O)cs1 [5b, 3-(2-(2-(2-Cyanobenzylidene)hydrazino)thiazol-4-yl)-2H-chromen-2-one] | > 50 |
| > 50 | 195 to 196 | O=c1oc2ccccc2cc1-c1csc(NN=Cc2c(F)cccc2Cl)n1 [5g, 3-(2-(2-(2-Chloro-6-fluorobenzylidene)hydrazino)thiazol-4-yl)-2H-chromen-2-one] | > 50 |
| > 50 | 193 to 194 | Cc1cc(C=NNc2nc(-c3cc4ccccc4oc3=O)cs2)ccc1O [5k, 3-(2-(2-(4-Hydroxy-3-methylbenzylidene)-hydrazino)thiazol-4-yl)-2H-chromen-2-one] | > 50 |
| > 50 | 190 to 191 | Cc1cccc(C=NNc2nc(-c3cc4ccccc4oc3=O)cs2)c1 [5e, 3-(2-(2-(3-Methylbenzylidene)hydrazino)thiazol-4-yl)-2H-chromen-2-one] | > 50 |

Second part, the molecule before the results:

| SMILES | IC50 [1] [µM] | melting point [°C] | IC50 [2] [µM] |
| --- | --- | --- | --- |
| O=c1oc2ccccc2cc1-c1csc(NN=Cc2ccc3ccccc3c2[N+](=O)[O-])n1 [5p, 3-(2-(2-((1-Nitronaphthalen-2-yl)methylidene)hydrazino)thiazol-4-yl)-2H-chromen-2-one] | > 50 | 211 to 213 | > 50 |
| COc1cccc2c1C(=O)c1c(O)c3c(c(O)c1C2=O)C[C@@](O)(C(=O)CO)C[C@@H]3O[C@H]1C[C@H](N)[C@H](O)[C@H](C)O1 [Doxorubicin, doxorubicin, reference compound] | 2.05 | – | 3.04 |
| O=c1oc2ccccc2cc1-c1csc(NN=Cc2ccc(-c3ccccc3)cc2)n1 [5n, 3-(2-(2-((1,1'-Biphenyl)-4-ylmethylidene)-hydrazino)thiazol-4-yl)-2H-chromen-2-one] | > 50 | 198 to 200 | > 50 |
| O=c1ccc2cc(C=NNc3nc(-c4cc5ccccc5oc4=O)cs3)ccc2o1 [5q, 6-((2-(4-(2-Oxo-2H-chromen-3-yl)thiazol-2-yl)hydrazono)methyl)-2H-chromen-2-one] | > 50 | 181 to 183 | > 50 |
| COc1ccc(C=NNc2nc(-c3cc4ccccc4oc3=O)cs2)c(OC)c1 [5l, 3-(2-(2-(2,4-Dimethoxybenzylidene)-hydrazino)thiazol-4-yl)-2H-chromen-2-one] | > 50 | 219 to 220 | > 50 |
| O=c1oc2ccccc2cc1-c1csc(NN=Cc2cc3ccccc3c3ccccc23)n1 [5s, 3-(2-(2-(Phenanthren-9-ylmethylidene)-hydrazino)thiazol-4-yl)-2H-chromen-2-one] | > 50 | 245 to 247 | > 50 |
| O=c1oc2ccccc2cc1-c1csc(NN=Cc2cc3ccc4cccc5ccc(c2)c3c45)n1 [5t, 3-(2-(2-(Pyren-2-ylmethylidene)hydrazino)thiazol-4-yl)-2H-chromen-2-one] | > 50 | 237 to 239 | > 50 |
